Test results as given in ChEMBL document CHEMBL5505970 (J Med Chem, 2024).
Each block holds one molecule with its values, some of them ahead of it. Active and inactive are the calls of the source. The rule behind the calls is not given here.

Columns and labels:
[1] = Inhibition of human full length recombinant ATR M211T mutant using GST-c-Myc-p53 as substrate measured after 30 mins in presence of Mg/ATP mix by ELISA
ATR/ATRIP = ATR/ATRIP (Homo sapiens, UniProt Q13535); assay: Inhibition of human ATR/ATRIP using GST-tagged p53 as substrate in presence of 3 uM ATP by AlphaScreen assay; type: protein-complex assay
[2] = target: T1, Serine/threonine-protein kinase ATR (Homo sapiens, UniProt Q13535); assay: Inhibition of ATR in human HeLa S3 cells assessed as decrease in CHK1 phosphorylation at Ser345 residue pretreated for 20 mins followed by gemcitabine stimulation for 3.5 to 4 hrs by AlphaScreen SurFire assay; type: cell-based
[3] = Clearance in human liver microsomes at 1 uM in presence of NADPH by ESI/LC-MS/MS analysis; type: ADME, Microsome; conditions: read-out: CLH
[4] = Clearance in Sprague-Dawley rat at 1 mg/kg, iv formulated as a solution in 10% PG:18% PEG400 in water or 5% NMP:95% (10% VitE TPGS in water) measured for 24 hrs by reverse phase liquid chromatography coupled to mass spectrometry; type: ADME, organism-based; conditions: in vivo
[5] = Oral bioavailability in Sprague-Dawley rat at 2.5 to 5 mg/kg formulated as a solution in 5% NMP:95% (10% VitE TPGS in water) measured for 24 hrs by reverse phase liquid chromatography coupled to mass spectrometry; type: ADME, organism-based; conditions: in vivo, dose 2.5-5 mg/kg
Homo sapiens [6] = species: Homo sapiens; assay: Selectivity ratio of IC50 for inhibition of mTOR in human HeLa S3 cells to IC50 for inhibition of ATR in human HeLa S3 cells; type: cell-based; conditions: time 1.0 hrs
[7] = Efflux ratio of apparent permeability in human Caco-2 cells at 10 uM measured for 90 mins by LC-MS/MS analysis; type: ADME, cell-based
[8] = Apparent permeability of the compound in human Caco-2 cells at 10 uM measured for 90 mins by LC-MS/MS analysis; type: ADME, cell-based
[9] = Clearance in human hepatocytes at 1 uM measured per million cells by ESI/LC-MS/MS analysis; type: ADME, cell-based, Hepatocyte; conditions: read-out: CLH
[10] = target: DNA-dependent protein kinase catalytic subunit (Homo sapiens, UniProt P78527); assay: Inhibition of human full length recombinant DNA-PK using GST-c-Myc-p53 as substrate measured after 30 mins in presence of Mg/ATP mix by ELISA
[11] = target: Serine-protein kinase ATM (Homo sapiens, UniProt Q13315); assay: Inhibition of human full length recombinant ATM using GST-c-Myc-p53 as substrate measured after 30 mins in presence of Mg/ATP mix by ELISA
[12] = target: Serine/threonine-protein kinase mTOR (Homo sapiens, UniProt P42345); assay: Inhibition of human full length recombinant mTOR measured after 40 mins in presence of [gamma-33P]ATP by radiometric scintillation counting analysis
LoVo = assay: Cytotoxicity against human LoVo cells assessed as reduction in cell viability incubated for 5 days by CellTiter-Glo assay; type: functional, cell-based; conditions: 120 h
[13] = Toxicity in NOD-SCID mouse xenografted with human Granta-519 cells assessed as reduction in red blood cells at 50 mg/kg, po bid for 3 days and 4 days off treatment and measured on day 14; type: organism-based; conditions: in vivo, 72 h, time 3 day
Granta-519 = assay: Antitumor activity against human Granta-519 cells xenografted in NOD-SCID mouse assessed as decrease in tumor volume at 50 mg/kg, po bid for 3 days and measured at 4 days after drug treatment cessation; type: functional, organism-based; conditions: time 3.0 day
[14] = Toxicity in NOD-SCID mouse xenografted with human Granta-519 cells assessed as early stage erythroblasts at 30 mg/kg, po bid for 3 days and measured at 4 days after treatment discontinuation by flow cytometry; type: organism-based; conditions: in vivo, 72 h, time 3 day
[15] = Toxicity in NOD-SCID mouse xenografted with human Granta-519 cells assessed as late stage erythroblasts at 30 mg/kg, po bid for 3 days and measured at 4 days after treatment discontinuation by flow cytometry; type: organism-based; conditions: in vivo, 72 h, time 3 day
[16] = target: Dual specificity tyrosine-phosphorylation-regulated kinase 1A (Homo sapiens) (UniProt Q13627); assay: Inhibition of DYRK1A in human Jurkat cell lysates at 0.03 to 0.3 uM in presence of biotinylated ADP by KiNativ profiling based mass spectrometry; type: subcellular; conditions: dose 0.03-0.3 µM
[17] = target: Glycogen synthase kinase-3 beta (Homo sapiens) (UniProt P49841); assay: Inhibition of GSK3B in human Jurkat cell lysates at 0.03 to 0.3 uM in presence of biotinylated ADP by KiNativ profiling based mass spectrometry; type: subcellular; conditions: dose 0.03-0.3 µM
[18] = target: T1, Serine/threonine-protein kinase ATR; assay: Inhibition of ATR in gemcitabine-stimulated human LoVo cells assessed as decrease in CHK1 phosphorylation at Ser345 residue; type: cell-based
[19] = target: Glycogen synthase kinase-3 alpha (Homo sapiens) (UniProt P49840); assay: Inhibition of GSK3A in human Jurkat cell lysates at 0.03 to 0.3 uM in presence of biotinylated ADP by KiNativ profiling based mass spectrometry; type: subcellular; conditions: dose 0.03-0.3 µM
[20] = target: T1, Serine/threonine-protein kinase ATR; assay: Inhibition of ATR (unknown origin) by Morrison equation based analysis
Homo sapiens [21] = species: Homo sapiens; assay: Selectivity ratio of IC50 for inhibition of mTOR in human LoVo cells using pP70S6K (Thr389) as substrate to IC50 for inhibition of ATR in gemcitabine-stimulated human LoVo cells using CHK1 (Ser345) as substrate; type: cell-based

Sequence of ATR/ATRIP (Q13535 whole entry): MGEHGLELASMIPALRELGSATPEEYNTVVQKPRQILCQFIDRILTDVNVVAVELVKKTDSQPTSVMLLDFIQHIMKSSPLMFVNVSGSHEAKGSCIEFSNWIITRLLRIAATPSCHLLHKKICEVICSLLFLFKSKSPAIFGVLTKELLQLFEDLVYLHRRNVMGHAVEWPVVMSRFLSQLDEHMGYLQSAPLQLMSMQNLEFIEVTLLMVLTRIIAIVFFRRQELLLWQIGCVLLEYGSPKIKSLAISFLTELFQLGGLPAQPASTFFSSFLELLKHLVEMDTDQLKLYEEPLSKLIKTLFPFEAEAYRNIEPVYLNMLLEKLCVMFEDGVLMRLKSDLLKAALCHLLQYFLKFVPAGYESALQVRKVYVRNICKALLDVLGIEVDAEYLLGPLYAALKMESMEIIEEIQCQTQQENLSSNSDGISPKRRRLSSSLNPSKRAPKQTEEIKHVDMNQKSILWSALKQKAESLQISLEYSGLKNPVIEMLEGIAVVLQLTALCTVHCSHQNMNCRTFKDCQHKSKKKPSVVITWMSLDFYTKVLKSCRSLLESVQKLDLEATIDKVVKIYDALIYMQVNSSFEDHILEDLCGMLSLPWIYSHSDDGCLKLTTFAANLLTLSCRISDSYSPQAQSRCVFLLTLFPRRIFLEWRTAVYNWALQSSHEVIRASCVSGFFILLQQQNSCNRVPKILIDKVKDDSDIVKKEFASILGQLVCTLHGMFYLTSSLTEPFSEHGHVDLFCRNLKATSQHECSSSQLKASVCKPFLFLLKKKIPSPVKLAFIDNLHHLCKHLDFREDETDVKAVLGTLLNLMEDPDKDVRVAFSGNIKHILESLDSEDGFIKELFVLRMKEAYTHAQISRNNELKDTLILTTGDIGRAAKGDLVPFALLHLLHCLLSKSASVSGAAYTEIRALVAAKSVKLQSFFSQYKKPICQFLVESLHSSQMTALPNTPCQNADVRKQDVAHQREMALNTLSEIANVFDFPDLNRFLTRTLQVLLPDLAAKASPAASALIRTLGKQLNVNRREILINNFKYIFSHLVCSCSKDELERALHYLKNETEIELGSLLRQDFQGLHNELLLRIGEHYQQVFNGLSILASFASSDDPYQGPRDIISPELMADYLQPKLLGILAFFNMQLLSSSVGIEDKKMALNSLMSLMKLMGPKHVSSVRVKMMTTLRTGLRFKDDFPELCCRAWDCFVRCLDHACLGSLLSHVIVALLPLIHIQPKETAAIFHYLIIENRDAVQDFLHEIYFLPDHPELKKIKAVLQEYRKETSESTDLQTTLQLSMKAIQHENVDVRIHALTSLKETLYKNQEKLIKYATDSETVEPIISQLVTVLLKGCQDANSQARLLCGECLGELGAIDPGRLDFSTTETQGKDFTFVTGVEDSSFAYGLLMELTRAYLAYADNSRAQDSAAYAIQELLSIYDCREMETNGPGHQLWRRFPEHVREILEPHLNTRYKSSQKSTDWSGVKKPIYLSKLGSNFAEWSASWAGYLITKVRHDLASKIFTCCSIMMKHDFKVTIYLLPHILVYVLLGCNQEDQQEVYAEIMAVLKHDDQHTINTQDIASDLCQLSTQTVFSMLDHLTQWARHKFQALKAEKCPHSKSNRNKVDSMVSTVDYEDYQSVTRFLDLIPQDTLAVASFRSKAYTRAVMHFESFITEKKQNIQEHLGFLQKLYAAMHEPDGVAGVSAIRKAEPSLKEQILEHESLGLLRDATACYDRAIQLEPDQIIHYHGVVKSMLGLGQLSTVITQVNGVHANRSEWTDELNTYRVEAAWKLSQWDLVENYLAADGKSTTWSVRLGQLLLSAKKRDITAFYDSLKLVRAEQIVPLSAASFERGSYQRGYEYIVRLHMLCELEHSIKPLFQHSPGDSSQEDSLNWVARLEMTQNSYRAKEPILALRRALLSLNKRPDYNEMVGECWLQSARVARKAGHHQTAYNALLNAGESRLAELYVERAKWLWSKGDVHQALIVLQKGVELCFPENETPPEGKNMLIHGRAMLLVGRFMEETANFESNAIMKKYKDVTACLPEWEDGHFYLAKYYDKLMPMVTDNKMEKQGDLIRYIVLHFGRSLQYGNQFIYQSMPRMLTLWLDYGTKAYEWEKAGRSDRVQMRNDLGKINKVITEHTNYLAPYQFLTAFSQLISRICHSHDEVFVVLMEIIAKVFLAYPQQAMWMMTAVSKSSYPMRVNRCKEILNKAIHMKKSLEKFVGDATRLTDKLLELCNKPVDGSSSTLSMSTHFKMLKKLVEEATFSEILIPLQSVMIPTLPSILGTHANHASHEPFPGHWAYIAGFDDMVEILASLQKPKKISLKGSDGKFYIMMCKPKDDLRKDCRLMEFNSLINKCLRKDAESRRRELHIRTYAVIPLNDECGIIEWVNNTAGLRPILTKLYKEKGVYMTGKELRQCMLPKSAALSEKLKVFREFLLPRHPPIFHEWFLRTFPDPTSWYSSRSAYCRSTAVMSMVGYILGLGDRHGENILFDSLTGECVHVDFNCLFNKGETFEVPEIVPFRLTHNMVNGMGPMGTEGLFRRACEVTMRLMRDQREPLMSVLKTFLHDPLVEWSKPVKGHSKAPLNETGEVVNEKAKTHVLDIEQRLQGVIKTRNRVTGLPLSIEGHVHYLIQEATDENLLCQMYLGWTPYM
Sequence of ATR/ATRIP (Q8WXE1 whole entry, further chain): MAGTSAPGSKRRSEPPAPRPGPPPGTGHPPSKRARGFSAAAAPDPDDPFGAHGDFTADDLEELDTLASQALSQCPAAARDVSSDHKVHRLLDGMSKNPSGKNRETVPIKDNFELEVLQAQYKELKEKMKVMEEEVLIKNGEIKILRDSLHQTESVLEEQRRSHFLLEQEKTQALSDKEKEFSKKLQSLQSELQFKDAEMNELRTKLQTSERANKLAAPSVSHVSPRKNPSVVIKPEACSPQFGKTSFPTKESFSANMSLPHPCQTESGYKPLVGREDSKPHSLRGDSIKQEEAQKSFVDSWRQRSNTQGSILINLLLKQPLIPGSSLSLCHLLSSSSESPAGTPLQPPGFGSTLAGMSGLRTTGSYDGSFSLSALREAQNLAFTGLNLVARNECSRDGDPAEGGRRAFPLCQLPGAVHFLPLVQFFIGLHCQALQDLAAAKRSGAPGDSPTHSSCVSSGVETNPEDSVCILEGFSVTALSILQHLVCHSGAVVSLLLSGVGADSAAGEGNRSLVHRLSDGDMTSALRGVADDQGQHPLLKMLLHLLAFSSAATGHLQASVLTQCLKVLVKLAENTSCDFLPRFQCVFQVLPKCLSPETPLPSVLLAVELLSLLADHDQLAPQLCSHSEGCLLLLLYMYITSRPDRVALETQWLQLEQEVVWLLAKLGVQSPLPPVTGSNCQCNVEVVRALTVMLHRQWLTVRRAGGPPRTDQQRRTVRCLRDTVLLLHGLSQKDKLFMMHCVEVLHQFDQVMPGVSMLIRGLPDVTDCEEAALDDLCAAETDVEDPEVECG
T1 sequence (Q13535 whole entry): as the sequence (Q13535 whole entry) above
Sequence of Glycogen synthase kinase-3 beta (Homo sapiens) (P49841 whole entry, looked up): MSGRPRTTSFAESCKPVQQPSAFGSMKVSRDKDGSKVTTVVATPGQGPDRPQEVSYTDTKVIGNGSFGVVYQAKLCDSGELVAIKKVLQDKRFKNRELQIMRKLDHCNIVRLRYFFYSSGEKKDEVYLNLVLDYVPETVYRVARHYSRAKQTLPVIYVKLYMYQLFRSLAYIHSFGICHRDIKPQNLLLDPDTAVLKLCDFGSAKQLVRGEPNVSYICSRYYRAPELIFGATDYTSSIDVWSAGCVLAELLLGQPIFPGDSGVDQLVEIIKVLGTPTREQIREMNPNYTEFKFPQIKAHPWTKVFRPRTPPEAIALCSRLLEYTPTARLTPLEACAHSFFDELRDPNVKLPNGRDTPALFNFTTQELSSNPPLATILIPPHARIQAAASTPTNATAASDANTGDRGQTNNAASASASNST
Sequence of Glycogen synthase kinase-3 alpha (Homo sapiens) (P49840 2-483 limits assumed): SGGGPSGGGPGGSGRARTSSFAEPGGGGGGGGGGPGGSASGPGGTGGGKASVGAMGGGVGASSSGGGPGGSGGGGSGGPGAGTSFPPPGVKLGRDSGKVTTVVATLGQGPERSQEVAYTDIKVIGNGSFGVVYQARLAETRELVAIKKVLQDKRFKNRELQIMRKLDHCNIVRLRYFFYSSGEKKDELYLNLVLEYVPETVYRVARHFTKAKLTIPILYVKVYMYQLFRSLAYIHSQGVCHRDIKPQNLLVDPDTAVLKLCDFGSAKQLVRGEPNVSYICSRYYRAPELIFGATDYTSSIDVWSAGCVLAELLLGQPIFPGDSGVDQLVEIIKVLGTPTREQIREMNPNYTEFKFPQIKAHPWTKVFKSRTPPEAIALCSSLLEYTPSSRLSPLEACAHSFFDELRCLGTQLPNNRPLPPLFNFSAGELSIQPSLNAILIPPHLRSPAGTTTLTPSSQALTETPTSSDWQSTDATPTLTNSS

IC50 [1]: 10 nM
SMILES: C[C@@H]1COCCN1c1cc(C2(S(C)(=O)=O)CC2)nc(-c2cccc3[nH]ccc23)n1

IC50 (ATR/ATRIP): > 1000 nM
IC50 [2]: > 10000 nM
SMILES: Cc1c[nH]nc1Nc1nc(N2CCOC[C@H]2C)cc(C2(S(C)(=O)=O)CC2)n1

IC50 (ATR/ATRIP): > 700 nM
IC50 [2]: > 10000 nM
SMILES: C[C@@H]1COCCN1c1cc(C2(S(C)(=O)=O)CC2)nc(Cc2cc[nH]n2)n1

microsomal CLint at 1 µM [3]: < 11.6 µL/min/mg
SMILES: C[C@@H]1COCCN1c1cc(C2(O)CCC(F)(F)CC2)c2cnn(-c3cc[nH]n3)c2n1

IC50 [2]: 7 nM
microsomal CLint at 1 µM [3]: 23 µL/min/mg
SMILES: C[C@@H]1COCCN1c1cc(I)c2cnn(-c3ccn[nH]3)c2n1

IC50 (ATR/ATRIP): 160 nM
IC50 [2]: > 10000 nM
SMILES: C[C@@H]1COCCN1c1cc(C2(S(C)(=O)=O)CC2)nc(S(=O)(=O)c2cc[nH]n2)n1

IC50 (ATR/ATRIP): > 1000 nM
SMILES: C[C@@H]1COCCN1c1cc(C2(S(C)(=O)=O)CC2)nc(N(C)c2cc[nH]n2)n1

clearance [4]: 45 mL/min/kg
microsomal CLint at 1 µM [3]: < 11.6 µL/min/mg
bioavailability [5]: 2%
SMILES: C[C@@H]1COCCN1c1cc(-c2ccccc2C(N)=O)c2cnn(-c3ccn[nH]3)c2n1

IC50 [2]: 60 nM
SMILES: C[C@@H]1COCCN1c1ccc2cnn(-c3cc[nH]n3)c2n1
Ratio IC50 (Homo sapiens [6]): 4

IC50 [2]: 9 nM
SMILES: C[C@@H]1COCCN1c1cc(C(C)(C)C(N)=O)c2cnn(-c3cc[nH]n3)c2n1

IC50 (ATR/ATRIP): > 1000 nM
SMILES: Cc1cc2c(C3(S(C)(=O)=O)CC3)cc(N3CCOC[C@H]3C)nc2n1-c1cc[nH]n1

efflux ratio at […], 10 µM [7]: 0.9
clearance [4]: 15 mL/min/kg
IC50 [2]: 0.8 nM
Papp at […], 10 µM [8]: 17 ×10⁻⁶ cm/s
microsomal CLint at 1 µM [3]: < 11.6 µL/min/mg
bioavailability [5]: 56%
SMILES: C[C@@H]1COCCN1c1cc(C(C)(C)C#N)c2cnn(-c3cc[nH]n3)c2n1
Ratio IC50 (Homo sapiens [6]): 6.6

IC50 [2]: 21 nM
SMILES: C[C@@H]1COCCN1c1cc(C(C)(C)O)c2cnn(-c3cc[nH]n3)c2n1

IC50 [2]: > 10000 nM
SMILES: C[C@@H]1COCCN1c1cc(C2(S(C)(=O)=O)CC2)nc(Nc2cn[nH]c2)n1

hepatocyte CLint at 1 µM [9]: < 2.9 µL/min/1e6 cells
microsomal CLint at 1 µM [3]: < 11.8 µL/min/mg
SMILES: C[C@@H]1COCCN1c1cc(C2(S(C)(=O)=O)CC2)c2ccn(-c3cc[nH]n3)c2n1

SMILES: C[C@@H]1COCCN1c1cc(I)c2cnn(-c3cc[nH]n3)c2n1
Ratio IC50 (Homo sapiens [6]): 1.6

IC50 [1]: 5 nM
IC50 [10]: 3600 nM
IC50 [11]: 85 nM
IC50 [12]: 4800 nM
SMILES: CNCc1ccc(-c2cc(-c3nc(-c4ccc(S(=O)(=O)C(C)C)cc4)cnc3N)on2)cc1 [BERZOSERTIB]

IC50 [1]: 134 nM
SMILES: C[C@@H]1COCCN1c1cc(C2([S@](C)(=N)=O)CC2)nc(-c2cc[nH]c3nccc2-3)n1 [CERALASERTIB]
IC50 (LoVo): 377 nM

SMILES: C[C@@H]1COCCN1c1cc(-c2ccnn2C)c2ccnc(-c3ccn[nH]3)c2n1 [ELIMUSERTIB]
IC50 (LoVo): 27 nM
Activity [13]: Toxic
Activity (Granta-519): Active
Activity [14]: Non-Toxic
Activity [15]: Non-Toxic

inhibition [16]: Active
IC50 (ATR/ATRIP): 160 nM
inhibition [17]: Active
IC50 [18]: 1.1 nM
inhibition [19]: Active
IC50 [2]: 5 nM
Ki [20]: 2.9 nM
SMILES: Nc1nn2cc(F)cnc2c1C(=O)Nc1cncc(F)c1N1CCC(C(=O)N2CCN(C3COC3)CC2)CC1 [M4344]
Ratio IC50 (Homo sapiens [6]): 27
Ratio IC50 (Homo sapiens [21]): 63
